Measurements reported in patent US12378256B2, “Heterocyclic compound” (Takeda Pharmaceutical Company Limited, priority 2017, dated 2025).

Biological target: T1, human M1 receptor (hCHRM1) (Homo sapiens, UniProt P11229)
T1 construct: expressed in transfected cells; host or cells: CHO-K1
T1 sequence (P11229 1-460): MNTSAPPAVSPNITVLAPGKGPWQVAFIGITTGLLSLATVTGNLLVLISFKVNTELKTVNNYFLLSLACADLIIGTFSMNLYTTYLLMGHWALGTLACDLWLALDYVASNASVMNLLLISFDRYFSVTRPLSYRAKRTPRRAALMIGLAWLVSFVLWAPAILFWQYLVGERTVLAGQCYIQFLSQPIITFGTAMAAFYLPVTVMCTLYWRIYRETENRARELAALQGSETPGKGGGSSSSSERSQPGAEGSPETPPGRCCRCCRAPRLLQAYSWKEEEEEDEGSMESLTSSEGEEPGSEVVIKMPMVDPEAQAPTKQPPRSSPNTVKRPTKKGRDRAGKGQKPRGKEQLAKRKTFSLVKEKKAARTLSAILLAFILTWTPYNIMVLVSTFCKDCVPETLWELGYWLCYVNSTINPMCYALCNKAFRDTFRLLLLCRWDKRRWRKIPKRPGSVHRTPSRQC
Assay: Measurement of M1 receptor positive allosteric modulator (M1PAM) activity, calcium fluorescence with acetylcholine at EC20
Format: cell-based
Details: for activity (%) at 10 μM: 10 μM test compound, 100% = 1 μM acetylcholine, 0% = DMSO; for EC50: CHO-K1 cells expressing hCHRM1, acetylcholine at EC20 (final 0.8-1.0 nM), read-out: IP value (inflection point in the concentration-dependent curve)
Description: Measurement of M1 Receptor Positive Allosteric Modulator (M1PAM) Activity
The activity of a test compound in the presence of acetylcholine at EC20 concentration (final concentration 0.8-1.0 nM), which affords an action corresponding to about 20% of the maximum activity, was measured as PAM activity. The method is as follows. CHO-K1 cells stably expressing a human M1 receptor (hCHRM1) were plated on a 384-well black clear bottom plate (BD Falcon) at 5,000 cells/well, and cultured in an incubator at 37° C., 5% CO2 for 1 day. The medium in the cell plate was removed, and assay buffer A containing calcium indicator (Recording medium (DOJINDO LABORATORIES), 0.1% BSA (Wako Pure Chemical Industries, Ltd.), 2.5 μg/mL Fluo-4 AM (DOJINDO LABORATORIES), 0.08% Pluronic F127 (DOJINDO LABORATORIES), 1.25 mM probenecid (DOJINDO LABORATORIES)) was added at 30 μL/well. The cells were left standing in the incubator at 37° C., 5% CO2 for 30 min, and further left standing at room temperature for 30 min. A test compound prepared by diluting with assay buffer B (HBSS (Invitrogen), 20 mM HEPES (Invitrogen), 0.1% BSA) containing 3.2-4.0 nM acetylcholine was added at 10 μL/well, and the fluorescence was measured by FDSS/μCELL (Hamamatsu Photonics K.K.) for 1 min every for 1 second. With the definition that the amount of change in the fluorescence on addition of acetylcholine (final concentration 1 μM) is 100% and that on addition of DMSO instead of a test compound is 0%, the activity (%) of the test compound was calculated, and the inflection point in the concentration-dependent curve of the test compound was calculated as IP values.

| SMILES | activity (%) at 10 μM | EC50 |
| --- | --- | --- |
| Cn1ccc(-c2ccc(Cc3cc(C(=O)N[C@H]4CCOC[C@@H]4O)nc4c3OCC4)cc2)n1 [Example 28, 1,5-anhydro-2,3-dideoxy-3-(((7-(4-(1-methyl-1H-pyrazol-3-yl)benzyl)-2,3-dihydrofuro[3,2-b]pyridin-5-yl)carbonyl)amino)-L-threo-pentitol] | 101% | 2.3 nM |
| Cn1cc(-c2ccc(Cc3cc(C(=O)N[C@H]4CCOC[C@@H]4O)nc4ccoc34)cn2)nn1 [Example 34, 1,5-anhydro-2,3-dideoxy-3-(((7-((6-(1-methyl-1H-1,2,3-triazol-4-yl)pyridin-3-yl)methyl)furo[3,2-b]pyridin-5-yl)carbonyl)amino)-L-threo-pentitol] | 100% | 2.4 nM |
| Cn1cc(-c2ccc(Cc3cc(C(=O)N[C@H]4CCOC[C@@H]4O)nc4ccoc34)cc2)cn1 [Example 40, 1,5-anhydro-2,3-dideoxy-3-(((7-(4-(1-methyl-1H-pyrazol-4-yl)benzyl)furo[3,2-b]pyridin-5-yl)carbonyl)amino)-L-threo-pentitol] | 98% | 1.6 nM |
| Cc1cc(-c2ccc(Cc3cc(C(=O)N[C@H]4CCOC[C@@H]4O)nc4ccoc34)cc2)cnn1 [Example 43, 1,5-anhydro-2,3-dideoxy-3-(((7-(4-(6-methylpyridazin-4-yl)benzyl)furo[3,2-b]pyridin-5-yl)carbonyl)amino)-L-threo-pentitol] | 110% | 2.4 nM |
| Cn1cc(-c2ccc(Cc3cc(C(=O)N[C@H]4CCCC[C@@H]4O)nc4c3OCC4)cc2)nn1 [Example 47, N-((1S,2S)-2-hydroxycyclohexyl)-7-(4-(1-methyl-1H-1,2,3-triazol-4-yl)benzyl)-2,3-dihydrofuro[3,2-b]pyridine-5-carboxamide] | 101% | 1.8 nM |
| O=C(N[C@H]1CCOC[C@@H]1O)c1cc(Cc2ccc(-n3cccn3)cc2)c2occc2n1 [Example 48, 1,5-anhydro-2,3-dideoxy-3-(((7-(4-(1H-pyrazol-1-yl)benzyl)furo[3,2-b]pyridin-5-yl)carbonyl)amino)-L-threo-pentitol] | 103% | 1.1 nM |
| Cc1nccc(-c2ccc(Cc3cc(C(=O)N[C@H]4CCOC[C@@H]4O)nc4ccoc34)cc2)n1 [Example 49, 1,5-anhydro-2,3-dideoxy-3-(((7-(4-(2-methylpyrimidin-4-yl)benzyl)furo[3,2-b]pyridin-5-yl)carbonyl)amino)-L-threo-pentitol] | 104% | 2.9 nM |
| Cn1cc(-c2ccc(Cc3cc(C(=O)N[C@H]4CCOC[C@@H]4O)nc4c3OCC4)cn2)cn1 [Example 60, 1,5-anhydro-2,3-dideoxy-3-(((7-((6-(1-methyl-1H-pyrazol-4-yl)pyridin-3-yl)methyl)-2,3-dihydrofuro[3,2-b]pyridin-5-yl)carbonyl)amino)-L-threo-pentitol] | 104% | 1.6 nM |
| Cn1cc(-c2ccc(Cc3cc(C(=O)N[C@H]4CCCC[C@@H]4O)nc4c3OCC4)cn2)cn1 [Example 61, N-((1S,2S)-2-hydroxycyclohexyl)-7-((6-(1-methyl-1H-pyrazol-4-yl)pyridin-3-yl)methyl)-2,3-dihydrofuro[3,2-b]pyridine-5-carboxamide] | 104% | 1.8 nM |
| Cc1cc2nc(C(=O)N[C@H]3CCOC[C@@H]3O)cc(Cc3ccc(-c4cn(C)nn4)cc3)c2o1 [Example 64, 1,5-anhydro-2,3-dideoxy-3-(((2-methyl-7-(4-(1-methyl-1H-1,2,3-triazol-4-yl)benzyl)furo[3,2-b]pyridin-5-yl)carbonyl)amino)-L-threo-pentitol] | 109% | 2.4 nM |
| CNC(=O)c1ccc(Cc2cc(C(=O)N[C@H]3CCOC[C@@H]3O)nc3cc(C)oc23)cc1F [Example 65, 1,5-anhydro-2,3-dideoxy-3-(((7-(3-fluoro-4-(methylcarbamoyl)benzyl)-2-methylfuro[3,2-b]pyridin-5-yl)carbonyl)amino)-L-threo-pentitol] | 106% | 8.5 nM |
| Cn1cc(-c2ccc(C(F)c3cc(C(=O)N[C@H]4CCCC[C@@H]4O)nc4ccoc34)cn2)cn1 (stereo partly drawn) [Example 70, 7-(fluoro(6-(1-methyl-1H-pyrazol-4-yl)pyridin-3-yl)methyl)-N-((1S,2S)-2-hydroxycyclohexyl)furo[3,2-b]pyridine-5-carboxamide] | 99% | 1.2 nM |
| CC(C)(C)OCCNC(=O)c1ccc(Cc2cc(C(=O)N[C@H]3CCOC[C@@H]3O)nc3c2OCC3)cc1F [Example 89, 1,5-anhydro-3-(((7-(4-((2-tert-butoxyethyl)carbamoyl)-3-fluorobenzyl)-2,3-dihydrofuro[3,2-b]pyridin-5-yl)carbonyl)amino)-2,3-dideoxy-L-threo-pentitol] | 110% | 25 nM |

Continued, values first:

| activity (%) at 10 μM | EC50 | SMILES |
| --- | --- | --- |
| 108% | 5.3 nM | CCNC(=O)c1ccc(Cc2cc(C(=O)N[C@H]3CCOC[C@@H]3O)nc3c2OCC3)cc1F [Example 81, 1,5-anhydro-2,3-dideoxy-3-(((7-(4-(ethylcarbamoyl)-3-fluorobenzyl)-2,3-dihydrofuro[3,2-b]pyridin-5-yl)carbonyl)amino)-L-threo-pentitol] |
| 110% | 6.4 nM | O=C(N[C@H]1CCOC[C@@H]1O)c1cc(Cc2ccc(C(=O)NC3CC3)c(F)c2)c2c(n1)CCO2 [Example 82, 1,5-anhydro-3-(((7-(4-(cyclopropylcarbamoyl)-3-fluorobenzyl)-2,3-dihydrofuro[3,2-b]pyridin-5-yl)carbonyl)amino)-2,3-dideoxy-L-threo-pentitol] |
| 111% | 7.6 nM | O=C(N[C@H]1CCOC[C@@H]1O)c1cc(Cc2ccc(C(=O)NC[C@H]3CCCO3)c(F)c2)c2c(n1)CCO2 [Example 88, 1,5-anhydro-2,3-dideoxy-3-(((7-(3-fluoro-4-(((2R)-tetrahydrofuran-2-ylmethyl)carbamoyl)benzyl)-2,3-dihydrofuro[3,2-b]pyridin-5-yl)carbonyl)amino)-L-threo-pentitol] |
| 113% | 1.4 nM | O=C(N[C@H]1CCOC[C@@H]1O)c1cc(Cc2ccc(C(=O)NCc3ccc(O)cc3)c(F)c2)c2c(n1)CCO2 [Example 90, 1,5-anhydro-2,3-dideoxy-3-(((7-(3-fluoro-4-((4-hydroxybenzyl)carbamoyl)benzyl)-2,3-dihydrofuro[3,2-b]pyridin-5-yl)carbonyl)amino)-L-threo-pentitol] |
| 107% | 11 nM | O=C(O)CNC(=O)c1ccc(Cc2cc(C(=O)N[C@H]3CCOC[C@@H]3O)nc3c2OCC3)cc1F [Example 96, ((2-fluoro-4-((5-(((3R,4S)-3-hydroxytetrahydro-2H-pyran-4-yl)carbamoyl)-2,3-dihydrofuro[3,2-b]pyridin-7-yl)methyl)benzoyl)amino)acetic acid] |
| 107% | 5.1 nM | CC(C)SCCNC(=O)c1ccc(Cc2cc(C(=O)N[C@H]3CCOC[C@@H]3O)nc3c2OCC3)cc1F [Example 97, 1,5-anhydro-2,3-dideoxy-3-(((7-(3-fluoro-4-((2-(isopropylsulfanyl)ethyl)-carbamoyl)benzyl)-2,3-dihydrofuro[3,2-b]pyridin-5-yl)carbonyl)amino)-L-threo-pentitol] |
